Measured values taken from patent US9512125B2, “Substituted pyrazolo[3.4-D] pyrimidines as anti-inflammatory agents” (THE REGENTS OF THE UNIVERSITY OF CALIFORNIA, priority 2004, dated 2016).
Read-outs that look alike come from different tables or passages of the source.

Legend:
[1] = test system: monocyte activation; experiment: Monocyte activation inhibition in cell-based (BioMAP) assay; set-up: species or system human; conditions: weakly inhibit T cell activation, strongly inhibit monocyte activation, MCP-1 and IL-8 (at least 50%) in a cell-based assay
Procedure: (§1) Human umbilical vein endothelial cells (HUVEC) were cultured as described in Kunkel et al., 2004, FASEB J 18:1279-1281. Peripheral blood mononuclear cells (PBMC) were prepared from buffy coats (Stanford Blood Bank, Stanford, Calif.) by centrifugation over Hisopaque-1077 (Sigma). Four assay systems, 3C, 4H, SAG, and LPS, were used. For the 3C system, HUVEC were cultured for 24 h in microtiter plates (Falcon; BD Biosciences), in the presence of cytokines IL-1β (1 ng/ml), TNF-α (5 ng/ml), and IFN-γ (20 ng/ml). For the 4H system, HUVEC were cultured in the presence of IL-4 (5 ng/ml) and histamine (10 μM). For the SAG system, HUVEC were cultured with PBMC (7.5×10^4) and SAG (20 ng/ml). For the LPS system, HUVEC were cultured with PBMC (7.5×10^4) and LPS (2 ng/ml). Compounds were added 1 h before stimulation and were present during the entire 24-h stimulation period. Cell-based enzyme-linked immunosorbent assay (ELISAs) were carried out as described. (See Kunkel et al., 2004, FASEB J 18:1279-1281.)

[2] = test system: HUVEC with or without PBMC (3C, 4H, SAG and LPS systems); experiment: BioMAP inflammation model systems (3C, 4H, SAG, LPS), cell-based ELISA profiling; set-up: species or system human; conditions: 4 systems (3C, 4H, SAG, LPS); concentration of 5 micromolar; 24 h stimulation
[3] = test system: T cell activation; experiment: T cell activation inhibition in cell-based (BioMAP) assay; set-up: species or system human
Procedure: T-cell activation inhibitors may be especially useful in treating the inflammation underlying arthritis, psoriasis, vasculitis, multiple sclerosis, IBD, asthma, atherosclerosis, or other inflammatory disease.
as §1

[4] = test system: IFN-gamma signaling; experiment: Gamma interferon signaling inhibition in cell-based (BioMAP) assay; set-up: species or system human; conditions: weakly inhibit T cell and monocyte activation (less than 50%) but inhibit IFN-gamma signaling and collagen production
Procedure: In another embodiment, the compounds of the invention are the subset of compounds of Formula (I) that are gamma interferon signaling inhibitors. […] Gamma interferon signaling inhibitors may be especially useful in treating the inflammation underlying multiple diseases including rheumatoid arthritis, systemic sclerosis, COPD, asthma, atherosclerosis, cirrhosis, pulmonary fibrosis, sarcoidosis, keloids, and renal fibrosis.
as §1

[5] = test system: mouse peritoneal inflammation model; experiment: Mouse peritoneal inflammation model (thioglycollate); assay type: in vivo; conditions: 10 mg/kg intraperitoneal single dose, thioglycollate stimulus, peritoneal lavage at 4 and 24 hours
Procedure: The following example illustrates the ability of a compound useful in the methods of the present invention to reduce neutrophil and monocyte recruitment, as well as to reduce the total number of leukocytes in a mouse peritoneal inflammation model.
A single dose (10 mg/kg in 200 μl) of an anti-inflammatory pyrazolopyrimidine compound of the present invention (compound 30 in Table 1, above) was administered intraperionteally to a group of 6 mice while another group of 6 mice received an intraperitoneal injection of vehicle only. Fifteen minutes later, an inflammatory stimulus (thioglycollate, 200 μl) was administered intraperitoneally to each mouse. Peritoneal lavage was collected at 4 and 24 hours subsequent to stimulus administration.
Inflammatory infiltrate was recovered by injection of 10 ml of Ca++/Mg++ free PBS, massaging, and withdrawal. Total recovered cells were counted on a hemacytometer. The results are presented in FIG. 2 (average+/−SD of 6 mice).
Neutrophils, monocytes, lymphocytes and eosinophils were enumerated by analyzing smears of the peritoneal wash stained with Wright-Geimsa stain. The results are presented in FIG. 3 (average+/−SD of 6 mice).

[6] = strongly inhibit T cell activation: at least one listed gene product inhibited by at least 50% in a cell-based assay

## CC(C)n1nc(Cc2ccccc2Cl)c2c(N)ncnc21 [Compound 62]
[1]
  monocyte activation inhibitor classification: monocyte activation inhibitor
[2]
  Activity: active

## CNc1ncnc2c1c(Cc1ccccc1Cl)nn2C(C)(C)C [Compound 76]
[1]
  monocyte activation inhibitor classification: monocyte activation inhibitor
[2]
  Activity: active

## Cc1ccc(-c2nn(C(C)(C)C)c3ncnc(N)c23)cc1 [Compound 13, PP1, reference compound]
[3]
  T cell activation inhibitor classification: T cell activation inhibitor

## CC(C)(C)n1nc(Cc2ccccc2Br)c2c(N)ncnc21 [Compound 59]
[1]
  monocyte activation inhibitor classification: monocyte activation inhibitor
[2]
  Activity: active

## Cc1ccc(-c2nn(C(C)(C)C)c3ncnc(N)c23)c2ccccc12 [Compound 9]
[2]
  Activity: active
[4]
  gamma interferon signaling inhibitor classification: interferon gamma signaling inhibitor

## CC(C)(C)n1nc(Cc2ccccc2Cl)c2c(N)ncnc21 [Compound 30]
[1]
  monocyte activation inhibitor classification: monocyte activation inhibitor
[5]
  monocyte recruitment: reduce
  neutrophil recruitment: reduce
  total number of leukocytes: reduce
[2]
  Activity: active

## Nc1ncnc2c1c(Cc1ccccc1Cl)nn2C1CCCC1 [Compound 63]
[1]
  monocyte activation inhibitor classification: monocyte activation inhibitor
[2]
  Activity: active

## CC(C)(C)n1nc(-c2ccc3c(c2)OCO3)c2c(N)ncnc21 [Compound 15]
[2]
  Activity: active
[3]; [6]
  T cell activation inhibitor classification: T cell activation inhibitor

## CC(C)(C)Cn1nc(Cc2ccccc2Cl)c2c(N)ncnc21 [Compound 72]
[1]
  monocyte activation inhibitor classification: monocyte activation inhibitor
[2]
  Activity: active

## CC(C)(C)n1nc(-c2ccc(-c3ccccc3)cc2)c2c(N)ncnc21 [Compound 88]
[2]
  Activity: active

## COCCn1nc(-c2cccc(O)c2)c2c(N)ncnc21 [Compound 52]
[2]
  Activity: active

## CC(C)(C)n1nc(Cc2cccc(Br)c2)c2c(N)ncnc21 [Compound 2]
[2]
  Activity: +

## CC(C)(C)n1nc(-c2cccc(O)c2)c2c(N)ncnc21 [Compound 41]
[2]
  Activity: active
[3]; [6]
  T cell activation inhibitor classification: T cell activation inhibitor

## CC(C)(C)n1nc(-c2cccc(N)c2)c2c(N)ncnc21 [Compound 17]
[2]
  Activity: active
[3]; [6]
  T cell activation inhibitor classification: T cell activation inhibitor

## Cc1cccc(Cc2nn(C(C)(C)C)c3ncnc(N)c23)c1C [Compound 6]
[2]
  Activity: active

## COC(=O)CCCn1nc(Cc2ccccc2Cl)c2c(N)ncnc21 [Compound 73]
[2]
  Activity: +

## Cc1n[nH]c2ncnc(N)c12 [Compound 46]
[2]
  Activity: +

## Nc1ncnc2[nH]nc(Cc3ccccc3)c12 [Compound 45]
[2]
  Activity: +

## Cc1ccc(C)c(Cc2nn(C(C)(C)C)c3ncnc(N)c23)c1 [Compound 1]
[2]
  Activity: +

## CNc1ncnc2c1c(-c1cccc(O)c1)cn2C(C)C [Compound 55]
[2]
  Activity: +

## CC(C)n1cc(-c2cccc(O)c2)c2c(N)ncnc21 [Compound 50]
[2]
  Activity: active

## CCCCCn1nc(Cc2ccccc2Cl)c2c(N)ncnc21 [Compound 84]
[2]
  Activity: active

## CC(C)(C)n1nc(Cc2cccc(F)c2F)c2c(N)ncnc21 [Compound 82]
[2]
  Activity: active

## CC(C)(C)n1nc(-c2ccc(F)c3ccccc23)c2c(N)ncnc21 [Compound 12]
[2]
  Activity: active
[4]
  gamma interferon signaling inhibitor classification: interferon gamma signaling inhibitor

## Cn1nc(-c2ccc3ccccc3c2)c2c(N)ncnc21 [Compound 48]
[2]
  Activity: active
[3]; [6]
  T cell activation inhibitor classification: T cell activation inhibitor

## CC(C)(C)n1nc(-c2ccccc2Cl)c2c(N)ncnc21 [Compound 37]
[2]
  Activity: +

## CC(C)(C)n1nc(Cc2ccccc2O)c2c(N)ncnc21 [Compound 26]
[2]
  Activity: +

## CC(C)(C)n1nc(-c2cccc([N+](=O)[O-])c2)c2c(N)ncnc21 [Compound 16]
[2]
  Activity: +

## CC(C)(C)n1nc(-c2cccc3ccccc23)c2c(N)ncnc21 [Compound 19]
[2]
  Activity: active
[4]
  gamma interferon signaling inhibitor classification: interferon gamma signaling inhibitor

## Cc1cccc(-c2nn(C(C)(C)C)c3ncnc(N)c23)c1 [Compound 39]
[2]
  Activity: active

## Cc1sccc1Cc1n[nH]c2ncnc(N)c12 [Compound 66]
[2]
  Activity: active

## CC(C)(C)n1nc(-c2ccc3c4c(cccc24)CC3)c2c(N)ncnc21 [Compound 11]
[2]
  Activity: active
[4]
  gamma interferon signaling inhibitor classification: interferon gamma signaling inhibitor

## CC(C)(C)n1nc(Cc2ccc(F)cc2Cl)c2c(N)ncnc21 [Compound 69]
[2]
  Activity: +

## CC(C)(C)n1nc(-c2ccc3ccccc3c2)c2c(N)ncnc21 [Compound 10]
[2]
  Activity: active
[3]; [6]
  T cell activation inhibitor classification: T cell activation inhibitor

## CC(C)(C)n1nc(Cc2cccc3ccccc23)c2c(N)ncnc21 [Compound 7]
[2]
  Activity: active
[4]
  gamma interferon signaling inhibitor classification: interferon gamma signaling inhibitor

## Nc1ncnc2[nH]nc(-c3ccc4ccccc4c3)c12 [Compound 47]
[2]
  Activity: active

## CC(C)(C)n1nc(Cc2c(F)cccc2F)c2c(N)ncnc21 [Compound 81]
[2]
  Activity: active

## CC(C)(C)n1nc(Cc2ccccc2F)c2c(N)ncnc21 [Compound 64]
[1]
  monocyte activation inhibitor classification: monocyte activation inhibitor
[2]
  Activity: active

## CC(C)(C)n1nc(CC2CCCC2)c2c(N)ncnc21 [Compound 35]
[2]
  Activity: +

## CC(C)(C)c1ccc(-c2nn(C(C)(C)C)c3ncnc(N)c23)cc1 [Compound 14]
[2]
  Activity: +

## CC(C)(C)n1nc(Cc2ccccc2C(F)(F)F)c2c(N)ncnc21 [Compound 65]
[1]
  monocyte activation inhibitor classification: monocyte activation inhibitor
[2]
  Activity: active

## Cc1ccccc1Cc1nn(C(C)(C)C)c2ncnc(N)c12 [Compound 31]
[1]
  monocyte activation inhibitor classification: monocyte activation inhibitor
[2]
  Activity: active

## CC(C)(C)n1nc(-c2cc3ccccc3s2)c2c(N)ncnc21 [Compound 86]
[2]
  Activity: active

## CC(C)(C)n1nc(Cc2ccccc2)c2c(N)ncnc21 [Compound 36]
[1]
  monocyte activation inhibitor classification: monocyte activation inhibitor
[2]
  Activity: active

## CC(C)n1nc(-c2cccc(O)c2)c2c(N)ncnc21 [Compound 54]
[2]
  Activity: active
[3]; [6]
  T cell activation inhibitor classification: T cell activation inhibitor

## CCCCCCn1nc(Cc2ccccc2Cl)c2c(N)ncnc21 [Compound 87]
[2]
  Activity: active

## CC(C)(C)n1nc(Cc2c(Cl)cccc2Cl)c2c(N)ncnc21 [Compound 60]
[2]
  Activity: active

## Cc1cc(-c2nn(C(C)(C)C)c3ncnc(N)c23)cc2ccccc12 [Compound 8]
[2]
  Activity: active
[4]
  gamma interferon signaling inhibitor classification: interferon gamma signaling inhibitor

## Cc1cccc(Cc2nn(C(C)(C)C)c3ncnc(N)c23)c1 [Compound 32]
[2]
  Activity: +
